Experiments:
Demodex mites = experiment: in vitro Demodex survival time assay
Method: FIG. 4 summarizes the activity of 10% chloroquine in water relative to a water control on activity against Demodex mites in an in vitro assay, with an LT50 of 31.6 hours for chloroquine compared to 44.8 hours for the water control, illustrating the inactivation effect of chloroquine on Demodex.
Example 4: In vitro efficacy and mite lifetimes: Relative efficacy of various formulations are evaluated with a demodex survival time experiments. FIG. 3 tabulates demodex survival time, expressed in terms of LT50 (time at which 50% of demodex mites are killed) and/or average minutes to death for various active agents.

[1] = dichlorvos 1%, one patient; cited from earlier work

| Structure (SMILES) | LT50 (time at which 50% of demodex mites are killed) (Demodex mites; 10% chloroquine in water, water control 44.8 hours, FIG. 4) [h] | activity against Demodex mites (Demodex mites; in vitro assay, FIG. 3) | remission of Papulopostular Rosacea (PPR) [1] |
| --- | --- | --- | --- |
| CCN(CC)CCCC(C)Nc1ccnc2cc(Cl)ccc12 (stereo not drawn) [chloroquine] | 31.6 | has activity against Demodex mites |  |
| COP(=O)(OC)OC=C(Cl)Cl [dichlorvos] |  |  | complete and continued remission |

— patent US20210069176A1, “Treating Autoimmune Disorders with Chloroquine and/or Hydroxychloroquine” (Attillaps Holdings, priority 2018, published 2021)
